From PubChem BioAssay (NCI) come the findings set out here.

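In this assay, cells in 96-well plates receive the compound at five concentrations for 48 hours. Endpoints are linearly interpolated between the surrounding concentrations. Here, GI50 denotes the concentration required for 50% inhibition of growth. At the TGI there is no net growth.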 Where only a bound is given, the exact number is not on record here.

Assay in all cases: NCI-60 cell line screen, 48 h
Experiment [1] concerns SF-539 CNS.
In experiment [2] the test system is SN12C renal.
Experiment [3] has as its system OVCAR-5 ovarian.
Experiment [4] concerns NCI-H23 lung.
In experiment [5] the test system is HL-60(TB) leukemia.
Experiment [6] relates to MCF7 breast.
Experiment [7] relates to PC-3 prostate.
The test system of experiment [8] is MDA-MB-231 breast.

For the molecule `O=C(CCCn1ccnc1[N+](=O)[O-])NCCn1cnc([N+](=O)[O-])c1`, the TGI in experiment [1], in experiment [2], in experiment [3], in experiment [4], in experiment [5] and in experiment [6] was over 100 µM each time. Moreover, in experiment [7], the TGI is over 100 µM.

For the molecule `O=C1C2C(C(=O)[N]1[Hg][c]1ccccc1)C1(Cl)C(Cl)=C(Cl)C2(Cl)C1(Cl)Cl` (configuration not stated), the GI50 is 2.82 µM in experiment [3], 1490 nM in experiment [4], 2510 nM in experiment [5] and 6.42 µM in experiment [7]. Besides, the TGI in experiment [3] was 5.29 µM; in experiment [4] it was 3.32 µM; in experiment [5], 8.77 µM; in experiment [7], 23.7 µM.

`O=S(=O)(NC(=S)Nc1ccccc1)c1ccc(N2N=C3c4ccccc4CC3C2c2ccc(Cl)cc2)cc1` (configuration not stated): the GI50 is 24.2 µM in experiment [1]; 87.1 µM in experiment [8]; 24.5 µM in experiment [2]; 21000 nM in experiment [5]; 23.5 µM in experiment [6]; 13.8 µM in experiment [7]. Besides, the TGI is 45.7 µM in experiment [1]; over 100 µM in experiment [8]; 55.6 µM in experiment [2]; 46.2 µM in experiment [5]; 54.3 µM in experiment [6]; 28.1 µM in experiment [7].

On to `Cc1cc(N(CCCNc2ccnc3cc(Cl)ccc23)Cc2cccs2)nc(Cl)n1`, for which the GI50 in experiment [1] was 7.02 µM; in experiment [8] it was 3.36 µM; in experiment [2] it was 5.91 µM; in experiment [3], 5.9 µM; in experiment [4], 1300 nM; in experiment [6], 3.06 µM. In experiment [7], the GI50 is 3.32 µM. Also, the TGI in experiment [1] stood at 23.1 µM; in experiment [8], 17.3 µM; in experiment [2], 23.9 µM; in experiment [3] it was 24.3 µM; in experiment [4], 16.7 µM; in experiment [6], 17.1 µM. This molecule also returned a TGI in experiment [7] of 22.9 µM.

Take `C/C1=C\CC[C@@](C)(O)[C@H]2C[C@H](CC/C(C)=C/CC1)C1(CC1)C(=O)O2`: the GI50 in experiment [1] is 17.1 µM; in experiment [8] it was 17.5 µM; in experiment [2], 20.3 µM; in experiment [3], 31.4 µM; in experiment [4], 38000 nM; in experiment [6], 21 µM. For the same molecule, the GI50 in experiment [7] was 14.8 µM. Besides, the TGI was 33.5 µM in experiment [1]; 35.1 µM in experiment [8]; 43.2 µM in experiment [2]; 80 µM in experiment [3]; over 100 µM in experiment [4]; 57.4 µM in experiment [6]. In experiment [7], this molecule came in with a TGI of 32.4 µM.

`CC(=O)OCCC/C(=C\c1ccc2ccccc2c1)[N+](=O)[O-]`: the GI50 in experiment [1] was 1.76 µM; in experiment [8], 2.02 µM; in experiment [2], 1.54 µM; in experiment [3], 1.75 µM; in experiment [4] it was 1790 nM; in experiment [5] it was over 100000 nM. The GI50 in experiment [7] was 1.93 µM. Also, the TGI in experiment [1] was 3.32 µM; in experiment [8], 4.59 µM; in experiment [2], 3.32 µM; in experiment [3], 3.42 µM; in experiment [4] it was 4.65 µM; in experiment [5] it was over 100 µM. Also, the TGI in experiment [7] was determined as 4.24 µM.

For `O=C1C=C(N2CC2)c2ccccc2C1=O`, the GI50 is 1.83 µM in experiment [1]; 2.05 µM in experiment [8]; 1.76 µM in experiment [2]; 2.03 µM in experiment [3]; 1840 nM in experiment [4]; 2680 nM in experiment [5]. The GI50 in experiment [6] was 1.48 µM. The TGI came to 3.34 µM in experiment [1]; 5.11 µM in experiment [8]; 3.22 µM in experiment [2]; 3.68 µM in experiment [3]; 7.17 µM in experiment [4]; 6.54 µM in experiment [5]. The molecule further had a TGI in experiment [6] of 3.76 µM.

Regarding `CSc1nc(Cl)c(Br)c(Nc2c[nH]c(=O)[nH]c2=O)n1`, the TGI was 45.2 µM in experiment [1]; 30.1 µM in experiment [8]; 35.3 µM in experiment [2]; 35.7 µM in experiment [4]; 5.47 µM in experiment [5]; over 100 µM in experiment [6]. The molecule further displayed a TGI in experiment [7] of 45.8 µM.

Regarding `COc1cc(C/C=C/c2ccccc2)c(OC)cc1O`, the TGI in experiment [1] came to 37.6 µM; in experiment [8] it was 52.9 µM; in experiment [2], 34.5 µM; in experiment [3], 60.6 µM; in experiment [4] it was 42.8 µM; in experiment [5], 59.9 µM. Further, the TGI in experiment [7] is 67.2 µM.

Turning to `O=C(O)c1cn(C2CC2)c2cc(N3CCN(S(=O)(=O)c4ccc(Cl)c(Cl)c4)CC3)c(F)cc2c1=O`, the GI50 in experiment [1] is 3.39 µM; in experiment [2], 2.97 µM; in experiment [3], 4.14 µM; in experiment [5], 2040 nM; in experiment [6], 2.84 µM. Besides, the TGI in experiment [1] is over 100 µM; in experiment [2], over 100 µM; in experiment [3] it was over 100 µM; in experiment [5] it was 5.17 µM; in experiment [6] it was over 100 µM.
